Results taken from ChEMBL document CHEMBL2150907, “BACE-Inhibitors: Potential Treatment of Alzheimer Disease, Dementia, and Related Neurodegenerative Diseases. C. Spiro-Heterocyclic Derivatives: Patent Highlight” (ACS Med Chem Lett, 2012).

target: Beta-secretase 1 (Homo sapiens, UniProt P56817); assay: Inhibition of BACE1-mediated amyloid beta (1 to 40) production after 48 hrs by cell based HTRF immunoassay
Sequence (P56817 whole entry): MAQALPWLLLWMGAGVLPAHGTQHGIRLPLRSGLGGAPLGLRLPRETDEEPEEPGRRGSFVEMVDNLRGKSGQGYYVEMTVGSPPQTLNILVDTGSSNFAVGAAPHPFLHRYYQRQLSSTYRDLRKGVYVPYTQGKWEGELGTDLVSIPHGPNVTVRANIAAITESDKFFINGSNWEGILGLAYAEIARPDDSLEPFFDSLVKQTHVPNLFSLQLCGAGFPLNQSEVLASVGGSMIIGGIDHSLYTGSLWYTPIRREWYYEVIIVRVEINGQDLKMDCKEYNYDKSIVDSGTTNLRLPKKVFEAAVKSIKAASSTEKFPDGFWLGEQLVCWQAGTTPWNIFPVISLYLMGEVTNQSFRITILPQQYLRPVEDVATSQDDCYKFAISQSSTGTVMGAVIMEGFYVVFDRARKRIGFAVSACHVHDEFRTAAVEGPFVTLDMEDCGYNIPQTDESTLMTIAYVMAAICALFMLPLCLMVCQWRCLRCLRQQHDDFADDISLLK

IC50 [nM] | SMILES
3080 | CN1C(=O)CC2(N=C1N)c1cc(-c3cc(F)cc(Cl)c3)ccc1OC1CC3(CC[C@@H]12)OCCO3 (stereo partly drawn)
8.9 | NC1=N[C@]2(CO1)c1cc(-c3cncc(Cl)c3)ccc1OC1OC[C@H](OCC3CC3)C[C@@H]12 (mixture of isomers)
7.8 | NC1=N[C@@]2(CO1)c1cc(-c3cncc(Cl)c3)ccc1OC1OC[C@H](OCC3CC3)C[C@@H]12 (single isomer, unassigned)
